PMC9549646, “Diversification of phenolic glucosides by two UDP-glucosyltransferases featuring complementary regioselectivity” (Microbial Cell Factories, 2022)

How the values were obtained:
[1] = molecular target: T1, UGT85A1 (Arabidopsis thaliana, UniProt Q9SK82); test: in vitro glucosylation by purified enzyme, HPLC ([…] conversion); format: biochemical
T1 construct: N-terminal His6-tagged
T1 sequence (Q9SK82 1-489): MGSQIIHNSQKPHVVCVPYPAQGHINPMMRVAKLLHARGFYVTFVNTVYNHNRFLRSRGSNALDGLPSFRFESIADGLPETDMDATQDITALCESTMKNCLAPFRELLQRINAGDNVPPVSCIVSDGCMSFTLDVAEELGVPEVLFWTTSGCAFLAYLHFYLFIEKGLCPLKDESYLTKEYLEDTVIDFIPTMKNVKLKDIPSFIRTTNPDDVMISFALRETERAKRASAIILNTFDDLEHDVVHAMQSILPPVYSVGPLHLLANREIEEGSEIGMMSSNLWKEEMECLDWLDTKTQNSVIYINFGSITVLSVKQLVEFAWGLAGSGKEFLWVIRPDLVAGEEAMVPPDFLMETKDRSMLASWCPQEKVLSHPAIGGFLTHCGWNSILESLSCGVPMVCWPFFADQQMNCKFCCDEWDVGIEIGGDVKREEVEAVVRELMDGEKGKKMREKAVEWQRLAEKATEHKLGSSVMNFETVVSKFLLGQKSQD

[2] = molecular target: T2, Prolyl endopeptidase (PEP) (Elizabethkingia meningoseptica, UniProt P27028); test: chromogenic PEP assay, inhibition rate at […]; format: biochemical
T2 construct: gene f1pep1
T2 sequence (P27028 21-705): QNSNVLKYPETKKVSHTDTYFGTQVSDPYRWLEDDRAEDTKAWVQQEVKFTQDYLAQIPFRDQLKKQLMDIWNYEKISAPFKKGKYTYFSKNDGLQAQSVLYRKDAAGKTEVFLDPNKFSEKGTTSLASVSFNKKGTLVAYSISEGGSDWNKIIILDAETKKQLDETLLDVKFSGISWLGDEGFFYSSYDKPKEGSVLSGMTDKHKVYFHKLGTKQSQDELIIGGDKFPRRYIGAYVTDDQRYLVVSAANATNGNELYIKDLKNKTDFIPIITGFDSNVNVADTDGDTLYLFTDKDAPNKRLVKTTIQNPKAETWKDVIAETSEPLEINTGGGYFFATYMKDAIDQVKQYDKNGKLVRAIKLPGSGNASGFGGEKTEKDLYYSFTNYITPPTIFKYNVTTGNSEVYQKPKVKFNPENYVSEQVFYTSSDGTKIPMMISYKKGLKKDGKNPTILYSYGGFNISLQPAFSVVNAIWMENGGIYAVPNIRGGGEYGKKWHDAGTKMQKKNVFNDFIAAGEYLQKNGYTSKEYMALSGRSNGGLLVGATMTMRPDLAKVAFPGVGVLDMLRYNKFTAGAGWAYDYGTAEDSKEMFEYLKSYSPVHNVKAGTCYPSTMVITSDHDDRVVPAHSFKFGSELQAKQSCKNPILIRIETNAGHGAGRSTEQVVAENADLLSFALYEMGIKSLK

Row | Structure (SMILES) | in vitro glucosylation by purified enzyme, HPLC (98.9% conversion) [1] | inhibition at 500 µM [2] [%]
1 | OCc1ccc(O)cc1 [compound 1, p-hydroxybenzyl alcohol] | UGT85A1 showed higher selectivity than RrUGT17, producing only the alcoholic glucoside 1b | 
2 | OC[C@H]1O[C@@H](OCc2cccc(O)c2)[C@H](O)[C@@H](O)[C@@H]1O [12b] |  | > 50
3 | CC(O[C@@H]1O[C@H](CO)[C@@H](O)[C@H](O)[C@H]1O)c1ccc(O)cc1 (stereo partly shown) [13b] |  | > 50
4 | CC(O[C@@H]1O[C@H](CO)[C@@H](O)[C@H](O)[C@H]1O)c1cccc(O)c1 (stereo partly shown) [14b] |  | > 50
